# Data from patent EP0222912A1, “AGENT FOR TREATING ARTERIOSCLEROSIS” (ZERIA SHINYAKU KOGYO KABUSHIKI KAISHA, priority 1984, dated 1985).
# Columns and labels:
# Assay type in all cases: in vivo
# dd mice = assay: acute toxicity, oral, mice; conditions: 5 g/kg orally, five dd mice
# Text: (§1) In order to examine the acute toxicity of cycloartenol ferulate, it was orally administered to five dd mice and five SD rats.
# male SD rats [1] = tested on: male SD rats
# Description: In order to examine the effect of decreasing lipids, male SD rats aged four weeks were classified into the following four groups: i.e. (1) an ordinary diet group (control); (2) a cholesterol diet group; (3) a cholesterol diet group to which cycloartenol ferulate was administered; and (4) a cholesterol diet group to which γ-oryzanol was administered.
# Cycloartenol ferulate or γ-oryzanol was orally administered for 12 days repeatedly with the use of a metal probe. Each compound was administered in doses of 100 mg/kg, 500 mg/kg and 1000 mg/kg per animal a day. After each administration, blood of the animal was collected to determine free cholesterol (FC), triglyceride (TG) and phospholipids (PL) contained therein.
# male SD rats [2] = assay: hyperlipemia induced by Triton WR-1339; conditions: 10 mg/kg intravenously with 300 mg/kg Triton WR-1339, blood 43 hours after injection
# Description: In order to examine the mechanism of the lipid decreasing effect of cycloartenol ferulate the effect of the same on hyperlipemia induced by a surfactant (Triton WR-1339) was confirmed.
# The test was conducted with male SD rats aged six weeks. 300 mg/kg of Triton WR-1339 was intravenously injected to each rat of the first group to thereby induce hyperlipemia (Triton control group), while 10 mg/kg of cycloartenol ferulate or 10 mg/kg of γ-oryzanol was intravenously injected simultaneously with 300 mg/kg of Triton WR-1339 to each rat of other groups, thus examining the effect of decreasing lipids. Blood of each animal was collected 43 hours after the intravenous injection.
# SD rats = assay: acute toxicity, oral, rats; conditions: 5 g/kg orally, five SD rats
# Text: as §1
smiles,measurement,setting,value
COc1cc(/C=C/C(=O)O[C@H]2CC[C@]34C[C@]35CC[C@]3(C)[C@@H]([C@H](C)CCC=C(C)C)CC[C@@]3(C)[C@@H]5CC[C@H]4C2(C)C)ccc1O [cycloartenol ferulate],acute toxicity,dd mice,no animal died nor showed any toxic symptom
same,free cholesterol (FC),"male SD rats [1]; blood, cholesterol diet, oral, 12 days, 100, 500 and 1000 mg/kg a day, vs cholesterol diet group (Fig. 5)",lower than that of the cholesterol diet group to a statistically significant extent
same,triglyceride (TG),"male SD rats [1]; blood, cholesterol diet, oral, 12 days, 100, 500 and 1000 mg/kg a day, vs cholesterol diet group (Fig. 6)",lower than that of the cholesterol diet group to a statistically significant extent
same,phospholipids (PL),"male SD rats [1]; blood, cholesterol diet, oral, 12 days, 100, 500 and 1000 mg/kg a day, vs cholesterol diet group (Fig. 7)",lower than that of the cholesterol diet group to a statistically significant extent
same,body weight gain,"male SD rats [1]; cholesterol diet suppresses body weight gain, oral, 12 days (Fig. 12)",accelerated the growth of animals
same,arteriosclerosis index,"male SD rats [1]; cholesterol diet, oral, 12 days (Fig. 9)",remarkably lowers this index
same,HDL-cholesterol (HDLC),"male SD rats [1]; cholesterol diet, oral, 12 days, vs cholesterol diet group (Fig. 8)",increase HDLC to a statistically significant extent
same,GOT,"male SD rats [1]; rat, in vivo, po",no changes
same,GPT,"male SD rats [1]; rat, in vivo, po",no changes
same,TC,male SD rats [2]; vs Triton control group and γ-oryzanol group (Fig. 13),significant decreases
same,FC,male SD rats [2]; vs Triton control group and γ-oryzanol group (Fig. 14),significant decreases
same,TG,male SD rats [2]; vs Triton control group and γ-oryzanol group (Fig. 15),significant decreases
same,acute toxicity,SD rats,no animal died nor showed any toxic symptom
